This is an account of results in patent US9902728B2, “Pyrrolo and pyrazolopyrimidines as ubiquitin-specific protease 7 inhibitors” (Forma Therapeutics, Inc., priority 2014, dated 2018).

Each structure is given as a SMILES string.

The first experiment deals with T1, USP7 (Homo sapiens, UniProt Q93009).
T1 construct: USP7, construct USP7 (208-1102) 6*His, Viva Biotech; 6xHis (C); purchased Viva Biotech
T1 sequence (Q93009 208-1102): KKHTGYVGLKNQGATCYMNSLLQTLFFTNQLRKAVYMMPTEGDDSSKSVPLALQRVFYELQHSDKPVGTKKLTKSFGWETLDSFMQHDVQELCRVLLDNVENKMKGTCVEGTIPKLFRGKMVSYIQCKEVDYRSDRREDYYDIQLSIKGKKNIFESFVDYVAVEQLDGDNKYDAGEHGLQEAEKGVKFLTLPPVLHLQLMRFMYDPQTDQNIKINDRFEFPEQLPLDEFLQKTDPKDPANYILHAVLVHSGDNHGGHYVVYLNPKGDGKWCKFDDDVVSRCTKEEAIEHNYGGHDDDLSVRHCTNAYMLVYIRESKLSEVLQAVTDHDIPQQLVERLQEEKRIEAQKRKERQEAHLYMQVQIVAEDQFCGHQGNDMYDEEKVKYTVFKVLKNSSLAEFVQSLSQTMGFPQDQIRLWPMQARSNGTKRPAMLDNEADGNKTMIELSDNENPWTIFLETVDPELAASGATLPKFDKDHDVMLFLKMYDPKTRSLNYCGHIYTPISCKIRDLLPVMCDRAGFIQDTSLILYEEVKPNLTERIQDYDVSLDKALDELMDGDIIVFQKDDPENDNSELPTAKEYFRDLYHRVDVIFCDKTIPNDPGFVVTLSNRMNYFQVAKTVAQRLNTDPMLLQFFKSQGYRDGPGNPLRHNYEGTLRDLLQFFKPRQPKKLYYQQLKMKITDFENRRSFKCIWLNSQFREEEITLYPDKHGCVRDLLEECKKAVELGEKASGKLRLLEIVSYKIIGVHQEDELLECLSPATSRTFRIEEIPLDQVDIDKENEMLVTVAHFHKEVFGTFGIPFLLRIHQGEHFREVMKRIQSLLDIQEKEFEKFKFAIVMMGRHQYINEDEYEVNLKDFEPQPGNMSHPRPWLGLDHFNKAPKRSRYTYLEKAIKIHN
The experiment in a line: USP7 Assay A (Ubitquin-Rhodamine 110 Assay). Type of experiment: biochemical. The settings on record: USP7_IC50, USP7 activity in USP7 assay A and B (table does not say which assay per compound). The method in brief: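 Enzyme and compound sat together for 30 min before Ub-Rh110 was added, in buffer of 20 mM Tris-HCl (pH 8.0), 1 mM GSH, 0.03% BGG and 0.01% Triton X-100.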
`CN1C2CCC1CN(c1cccc(-n3ncc4c(=O)n(CC5(O)CCN(C(=O)C6(C)CC6)CC5)cnc43)c1)C2` [Compound I-1644] displayed an IC50 of less than 200 nM.

The same experiment, now with this note: USP7 activity in USP7 assay A and B (table does not say which assay per compound); read-out: USP7_IC50.
For `Cc1cc(N[C@H]2CC[C@H](C(=O)N3CCC(O)(Cn4cnc5c(cnn5-c5ccc(F)cc5)c4=O)CC3)CC2)no1` [Compound I-806], the IC50 was 200 to 1000 nM.

As for `O=C(C1CCC(Oc2ccccn2)CC1)N1CCC(O)(Cn2cnc3c(cnn3-c3ccc(F)cc3)c2=O)CC1` (centres unmarked) [Compound I-546], the IC50 lay within 200 to 1000 nM.

For the compound `CN1CCN(c2cccc(-n3ncc4c(=O)n(CC5(O)CCN(C(=O)C6(C)CC6)CC5)cnc43)c2)CC1` [Compound I-1690], the IC50 was less than 200 nM.

Consider `O=C(C1CCC(n2cccn2)CC1)N1CCC(O)(Cn2cnc3c(cnn3-c3ccc(F)cc3)c2=O)CC1` (centres unmarked) [Compound I-548], for which the IC50 was in the range of 1000 to 10000 nM.

On to `CN1CCN(c2cccc(-n3ncc4c(=O)n(CC5(O)CCN(C(=O)C6(C)CC6)CC5)cnc43)c2)CC1C(F)F` (centres unmarked) [Compound I-1694], for which the IC50 was less than 200 nM.

As for `O=C(C[C@H](C(F)F)n1cccn1)N1CCC(O)(Cn2cnc3c(cnn3-c3ccc(-c4ccccc4)cc3)c2=O)CC1` [Compound I-645], the IC50 was 200 to 1000 nM.

For the compound `Cc1nccc(OC2CCC(C(=O)N3CCC(O)(Cn4cnc5c(cnn5-c5ccc(F)cc5)c4=O)CC3)CC2)n1` (centres unmarked) [Compound I-1016], the IC50 is 200 to 1000 nM.

`O=C(c1ccc(N2CCCN3CCCC3C2)cc1)N1CCC(O)(Cn2cnc3c(cnn3-c3ccc(F)cc3)c2=O)CC1` (centres unmarked) [Compound I-1683]: the IC50 was 1000 to 10000 nM.

For `CC1(C(=O)N2CCC(O)(Cn3cnc4c(cnn4-c4ccc(-c5cnn(C6CC6)c5)cc4)c3=O)CC2)CC1` [Compound I-1723], the IC50 fell in the range of 200 to 1000 nM.

As for `CN1CCC(Oc2ccc(C(=O)N3CCC(O)(Cn4cnc5c(cnn5-c5ccc(Cl)cc5)c4=O)CC3)cc2)CC1` [Compound I-1096], the IC50 was in the range of 1000 to 10000 nM.

As to `CC1(COc2ccc(-n3ncc4c(=O)n(CC5(O)CCN(C(=O)C6(C)CCC6)CC5)cnc43)cc2)COC1` [Compound I-1136], the IC50 was less than 200 nM.

`Cc1nc2n(n1)CCN(c1ccc(-n3ncc4c(=O)n(CC5(O)CCN(C(=O)c6ccc(F)cc6)CC5)cnc43)cc1)C2` [Compound I-1176]: the IC50 lay within 1000 to 10000 nM.

Turning to `CC1(C(=O)N2CCC(O)(Cn3cnc4c(cnn4-c4cccc(OCC5CC(F)(F)C5)c4)c3=O)CC2)CC1` [Compound I-1046, 1-(3-((3,3-difluorocyclobutyl)methoxy)phenyl)-5-((4-hydroxy-1-(1-methylcyclopropane-1-carbonyl)piperidin-4-yl)methyl)-1,5-dihydro-4H-pyrazolo[3,4-d]pyrimidin-4-one], the IC50 lay in the range of 200 to 1000 nM.

As to `CC1(C(=O)N2CCC(O)(Cn3cnc4c(cnn4-c4ccc(-n5ccc(F)n5)cc4)c3=O)CC2)CC1` [Compound I-1754], the IC50 lay within 200 to 1000 nM.

Still in this experiment, the particulars now being: USP7 assay A and B (table does not say which assay per compound); Ubiquitin-Rhodamine 110 substrate; read-out: USP7_IC50.
With `CC(CC(=O)N1CCC(O)(Cn2cnc3c(cnn3C)c2=O)CC1)c1ccccc1` (centres unmarked) [Compound I-1, 5-((4-Hydroxy-1-(3-phenylbutanoyl)piperidin-4-yl)methyl)-1-methyl-1,5-dihydro-4H-pyrazolo[3,4-d]pyrimidin-4-one], the IC50 is 200 to 1000 nM.

Still in this experiment, the particulars now being: USP7 assay A and B (table does not say which assay per compound); read-out: USP7_IC50.
On to `CN1CCCCC1COc1cccc(-n2ncc3c(=O)n(CC4(O)CCN(C(=O)c5ccc(F)cc5)CC4)cnc32)c1` (centres unmarked) [Compound I-1314], for which the IC50 fell in the range of 200 to 1000 nM.

Take `CNC(=O)N1CCC(O)(Cn2cnc3c(cnn3-c3ccc(-c4ccccc4)cc3)c2=O)CC1` [Compound I-425]: the IC50 is 1000 to 10000 nM.

Consider `CN(C)c1ncc(C(=O)N2CCC(O)(Cn3cnc4c(cnn4-c4ccc(F)cc4)c3=O)CC2)o1` [Compound I-315], for which the IC50 was 1000 to 10000 nM.

With `O=C(c1cccc(CN2CCCC2)c1)N1CCC(O)(Cn2cnc3c(cnn3-c3ccc(Cl)cc3)c2=O)CC1` [Compound I-1127], the IC50 fell in the range of 1000 to 10000 nM.
